These results are taken from paper PMC6121455, “Synthesis and Spectrum of Biological Activities of Novel N-arylcinnamamides” (International Journal of Molecular Sciences, 2018).

One data set concerns M. tuberculosis H37Ra. The note with it: cited from earlier work.
Data set [1] concerns Fusarium avenaceum (Fr.) Sacc. IMI 319947. Kind of data set: In vitro antifungal activity, mycelial growth (MIC). It is filed as cell-based. The note with it: F. avenaceum mycelial growth.
The subject of data set [2] is Bipolaris sorokiniana conidium germination. Briefly: Inhibition of Bipolaris sorokiniana conidium germination. It is filed as cell-based. The note with it: 48 h, read-out: Inhibition (%) Compared to Negative Control, conidium germination.
Data set [3] concerns Bipolaris sorokiniana (Sacc.) Shoemaker H-299. Kind of data set: In vitro antifungal activity, mycelial growth (MIC). The note with it: B. sorokiniana mycelial growth; for MIC: Bipolaris sorokiniana. It is filed as cell-based.
Data set [4] has as its system S. aureus ATCC 29213 biofilm formation. Briefly: Biofilm inhibition assay (crystal violet). The format is cell-based, Staphylococcus aureus. As to conditions: for effect on biofilm formation: sub-MIC concentrations.
Data set [5] relates to MRSA SA 630. Kind of data set: Synergy effect with clinically used drugs (fractional inhibitory concentration). The format is cell-based, Staphylococcus aureus. As to conditions: for Separate MIC: MRSA SA 630, each drug alone in the checkerboard plate; for Combined effect with vancomycin: additivity 0.5 < ΣFIC < 1.
Data set [6] deals with photosynthetic electron transport (PET) in spinach chloroplasts. Kind of data set: Inhibition of photosynthetic electron transport (PET) in spinach chloroplasts (Hill reaction, DCPIP). It is filed as biochemical, Spinacia oleracea L. Here is the method: Chloroplasts were prepared from spinach (Spinacia oleracea L.) according to Masarovicova and Kralova. The inhibition of photosynthetic electron transport (PET) in spinach chloroplasts was determined spectrophotometrically (Genesys 6, Thermo Scientific), using an artificial electron acceptor 2,6-dichlorophenol-indophenol (DCIPP) according to Kralova et al., and the rate of photosynthetic electron transport was monitored as a photoreduction of DCPIP. The measurements were carried out in phosphate buffer (0.02 mol/L, pH 7.2) containing sucrose (0.4 mol/L), MgCl2 (0.005 mol/L), and NaCl (0.015 mol/L). The chlorophyll content was 30 mg/L in these experiments, and the samples were irradiated (~100 W/m^2 with 10 cm distance) with a halogen lamp (250 W) using a 4 cm water filter to prevent warming of the samples (suspension temperature 22 °C). The studied compounds were dissolved in DMSO due to their limited water solubility.

For another data set, the system named is Staphylococcus aureus. Kind of data set: Pre-test subcultivation of aliquots on agar (minimal bactericidal concentration). It is filed as cell-based.
Data set [7] relates to MRSA SA 3202. Kind of data set: In vitro antibacterial evaluation, broth dilution micro-method (MIC). The format is cell-based, Staphylococcus aureus. The note with it: 24 h, read-out: MIC MRSA SA 3202. (Dilution methods test growth across graded concentrations, often in twofold steps.)
For a further data set, the system named is THP-1 cells. Kind of data set: In vitro antiproliferative assay (WST-1). As to conditions: WST-1, 24 h, highest concentration 30 μM, read-out: Tox IC50 (antiproliferative). The format is cell-based, human. Here is the method: The activity of this enzyme directly correlates with the number of metabolically active cells in the culture. […] Human monocytic leukemia THP-1 cells were used for in vitro antiproliferative assay. […] Cells were passaged at approximately one-week intervals. […] The maximum concentration of DMSO in the assays never exceeded 0.1%. Subsequently, the cells were incubated at 37 °C with 5% CO2 for 24 h. […] The median inhibition concentration values, IC50, were deduced through the production of a dose-response curve. All data were evaluated using GraphPad Prism 5.00 software (GraphPad Software, San Diego, CA, USA).
(Tetrazolium dyes change colour on reduction, which living cells bring about.)

For data set [8], the system named is Nicotiana tabacum var. Samsun. Kind of data set: In vivo toxicity against plant cells (leaf injection). The note with it: water solutions 1× MIC and 4× MIC injected into leaves, checked visually for 5 weeks.
Method: Nicotiana tabacum var. Samsun was used for this test [88].
Nicotiana tabacum var. Samsun was used for this test. […] As the negative control, solutions of DMSO in the same concentration were used. The positive control was 5% DMSO, which should be toxic to the plant cells. The aqueous solutions were injected into the plant leaves by a syringe (needle 27G × ¾”) to fill area approx. 1 cm^2 [88]. The test was made in triplicates in three different plants. The plants were kept in a greenhouse on direct sunlight. The effect of the compounds was visually checked every day for 5 weeks.
For data set [9], the system named is Staphylococcus aureus ATCC 29213. Briefly: In vitro antibacterial evaluation, broth dilution micro-method (MIC). The note with it: read-out: MIC SA. It is filed as cell-based.
Data set [10] can be described thus: Lipophilicity determination by RP-HPLC (capacity factor k / log k). As to conditions: C18, isocratic MeOH 72%/H2O 28%.
For the next data set, the system named is S. aureus ATCC 29213. Briefly: Dynamics of antibacterial effect (time-kill curves). The format is cell-based, Staphylococcus aureus. The note with it: 4× MIC, after 8 h; bactericidal = −3log decrease of CFU/mL.
Data set [11] deals with MRSA 63718. Kind of data set: In vitro antibacterial evaluation, broth dilution micro-method (MIC). It is filed as cell-based, Staphylococcus aureus. The note with it: 24 h, read-out: MIC MRSA 63718.
The test system of data set [12] is MRSA SA 630. The description is as above. It is filed as cell-based, Staphylococcus aureus. As to conditions: 24 h, read-out: MIC MRSA SA 630.
Data set [13] deals with MRSA SA 3202. Briefly: Synergy effect with clinically used drugs (fractional inhibitory concentration). The format is cell-based, Staphylococcus aureus. The note with it: for Separate MIC: MRSA SA 3202, each drug alone in the checkerboard plate; for Combined effect with vancomycin: additivity 0.5 < ΣFIC < 1.
The test system of data set [14] is MRSA 63718. The data set is described as above. The note with it: MRSA 63718, each drug alone in the checkerboard plate. The format is cell-based, Staphylococcus aureus.
Setting [15] is: Staphylococcus aureus, ATCC29213, 24 h.
Setting [16] is: MRSA SA 3202, synergy ΣFIC ≤ 0.5.

≈ marks a conversion by molar mass, not a printed value. Where “and” joins values, the source holds several entries; their conditions need not be identical. Equal entries are not always repeated. Entries after “also recorded” stand apart in the source; their conditions may differ. Where two headings read alike, the source gives them in different places.

In the case of `O=C(Nc1cccc(C(F)(F)F)c1)c1ccc2cccc(O)c2n1` [8-hydroxy-N-(3-trifluoromethylphenyl)quinoline-2-carbox-amide], in the data set with M. tuberculosis H37Ra, the “decrease of the viability of M. tuberculosis H37Ra to” value was 18.8%.

On to `CCCCNC(=O)n1c(NC(=O)OC)nc2ccccc21` [BNM, benomyl, reference compound], for which the MIC (as a rule, the smallest concentration in the dilution series that meets the test's criterion for growth inhibition) was 1.94 µM and 0.5 µg/mL in data set [1] (Fusarium avenaceum); 17.2 µM and 5 µg/mL in data set [3]. Besides, in data set [2] (5 μg/mL), the inhibition (usually the percentage by which the read-out fell short of the control) at 5 µg/mL worked out at 100%. Besides, the inhibition at 10 µg/mL in data set [2] (10 μg/mL) stood at 100%.

In the case of `O=C(O)c1cn(C2CC2)c2cc(N3CCNCC3)c(F)cc2c1=O` [CPX, ciprofloxacin], the “effect on biofilm formation” value in data set [4] is given as “induction of biofilm formation”.

Consider `O=C(/C=C/c1ccccc1)Nc1cccc(C(F)(F)F)c1` [Compound 6, (2E)-3-Phenyl-N-[3-(trifluoromethyl)phenyl]prop-2-enamide], for which the “Separate MIC” value in the data set with MRSA SA 630 [5] was 8 µg/mL; with MRSA SA 3202 [13] it was 16 μg/mL and 8/8 μg/mL and 8 μg/mL. Besides, the “Combined effect with vancomycin” value with MRSA SA 630 [5] (MRSA SA 630) and with MRSA SA 3202 [13] (MRSA SA 3202) was “additivity” throughout. The IC50 (as a rule, the concentration at which inhibition is half-maximal) in data set [6] is 189 µM; with THP-1 cells (Homo sapiens, THP-1, 24 h), 22 µM; with THP-1 cells, 22.7 ± 1.73 µM. This molecule returned a minimal bactericidal concentrations in the data set on Staphylococcus aureus not above 4 × MIC. The minimal inhibitory concentration (MIC) was 27.47 µM (≈ 8 µg/mL) in the data set on MRSA SA 3202 [7]; 27.5 µM and 8 µg/mL in the data set with MRSA SA 3202 [7] (Staphylococcus aureus, MRSA); 54.93 µM (≈ 16 µg/mL) in data set [1]; 54.9 µM and 16 µg/mL in data set [1] (Fusarium avenaceum); 27.47 µM (≈ 8 µg/mL) in data set [9] (S. aureus ATCC 29213, 24 h); 27.5 µM and 8 µg/mL in data set [9] (setting [15]). The MIC is 54.9 µM and 16 µg/mL in data set [3]; 27.47 µM (≈ 8 µg/mL) with MRSA 63718 [11]; 27.5 µM and 8 µg/mL in the data set on MRSA 63718 [11] (Staphylococcus aureus, MRSA); 27.47 µM (≈ 8 µg/mL) in the data set with MRSA SA 630 [12]; 27.5 µM and 8 µg/mL with MRSA SA 630 [12] (Staphylococcus aureus, MRSA). In addition, the “lowest concentration which inhibited ≥80% of biofilm formation” value in data set [4] (S. aureus ATCC 29213, 48 h) was found to be 8 µg/mL. Besides, the “in vivo toxicity against plant cells” value in data set [8] is on record as “nontoxic effect; also recorded: no visible influence on the plant tissue”. The molecule also had a log k in [10] of 0.4859. In [3], the “MIC BS” value fell in the range of 49.98 to 66.32 µM. Further, in the data set with S. aureus ATCC 29213, the “bactericidal effect in time-kill curve assay” value is “very close to the bactericidal level”.

`O=C(/C=C/c1ccccc1)Nc1cc(C(F)(F)F)cc(C(F)(F)F)c1` [Compound 13, (2E)-N-[3,5-bis(Trifluoromethyl)phenyl]-3-phenylprop-2-enamide]: the “Separate MIC” value with MRSA SA 630 [5] is 8 µg/mL and 4 µg/mL; in the data set on MRSA SA 3202 [13], 32 µg/mL. The “Combined effect with vancomycin” value in the data set on MRSA SA 630 [5] (MRSA SA 630) and in the data set with MRSA SA 3202 [13] (MRSA SA 3202) was “additivity” throughout. For the same molecule, the “Combined effect with ciprofloxacin” value with MRSA SA 630 [5] (MRSA SA 630, synergy ΣFIC ≤ 0.5) is listed as “synergistic”; in the data set on MRSA SA 3202 [13] (setting [16]), “synergistic”. Further, the IC50 amounted to 111 µM in data set [6]; 22 µM in the data set on THP-1 cells (Homo sapiens, THP-1, 24 h); 22.6 ± 1.88 µM in the data set on THP-1 cells. The minimal bactericidal concentrations in the data set on Staphylococcus aureus was not above 4 × MIC. For the same molecule, the MIC in the data set with MRSA SA 3202 [7] was 22.27 µM (≈ 8 µg/mL); with MRSA SA 3202 [7] (Staphylococcus aureus, MRSA) it was 22.3 µM and 8 µg/mL; in [1] (Fusarium avenaceum), 713 µM and 256 µg/mL; in data set [9] (S. aureus ATCC 29213, 24 h), 22.27 µM (≈ 8 µg/mL); in data set [9] (setting [15]), 22.3 µM and 8 µg/mL; in data set [3], 356 µM and 128 µg/mL. In addition, the MIC is 22.27 µM (≈ 8 µg/mL) in the data set on MRSA 63718 [11]; 22.3 µM and 8 µg/mL with MRSA 63718 [11] (Staphylococcus aureus, MRSA); 22.27 µM (≈ 8 µg/mL) in the data set with MRSA SA 630 [12]; 22.3 µM and 8 µg/mL in the data set on MRSA SA 630 [12] (Staphylococcus aureus, MRSA). Further, in [10], the log k is 0.981 and 0.9814. The “bactericidal effect in time-kill curve assay” value with S. aureus ATCC 29213 was “bactericidal”. Besides, the “Combined effect with tetracycline” value with MRSA SA 3202 [13] (setting [16]) is recorded as “synergistic”.

For `CN(C)[C@@H]1C(O)=C(C(N)=O)C(=O)[C@@]2(O)C(O)=C3C(=O)c4c(O)cccc4[C@@](C)(O)[C@H]3C[C@@H]12` [TET, tetracycline, reference compound], the “Separate MIC” value in the data set with MRSA 63718 [14] was found to be 128 µg/mL; with MRSA SA 3202 [13], 64 µg/mL.

On to `CN[C@H](CC(C)C)C(=O)N[C@H]1C(=O)N[C@@H](CC(N)=O)C(=O)N[C@H]2C(=O)N[C@H]3C(=O)N[C@H](C(=O)N[C@H](C(=O)O)c4cc(O)cc(O)c4-c4cc3ccc4O)[C@H](O)c3ccc(c(Cl)c3)Oc3cc2cc(c3O[C@@H]2O[C@H](CO)[C@@H](O)[C@H](O)[C@H]2O[C@H]2C[C@](C)(N)[C@H](O)[C@H](C)O2)Oc2ccc(cc2Cl)[C@H]1O` [VAN, vancomycin, reference compound], for which the “Separate MIC” value is 1 µg/mL in the data set with MRSA SA 630 [5], 2 µg/mL with MRSA 63718 [14] and 1 µg/mL in the data set with MRSA SA 3202 [13]. In addition, the “effect on biofilm formation” value in [4] is reported as “induction of biofilm formation”.
